In BigSolDB 2.1:

N[C@@H](Cc1ccccc1)C(=O)O
solubility (mole fraction)
Details | 283.15 K | 288.15 K | 293.15 K | 298.15 K | 303.15 K | 308.15 K | 313.15 K | 318.15 K | 323.15 K | 328.15 K
in 1,4-dioxane | – | 1.86e-05 | 2.37e-05 | 3.09e-05 | 3.5e-05 | 3.9e-05 | 4.53e-05 | 5.92e-05 | 8.28e-05 | 0.000118
in acetone | 8.09e-05 | 0.000104 | 0.000131 | 0.000153 | 0.000176 | 0.000226 | 0.000293 | 0.00033 | 0.000375 | –
in acetonitrile | 7.9e-06 | 9.3e-06 | 1.12e-05 | 1.55e-05 | 1.8e-05 | 2.4e-05 | 3.67e-05 | 4.72e-05 | 5.69e-05 | –
in ethanol | 0.000125 | 0.000136 | 0.000151 | 0.000165 | 0.000177 | 0.000191 | 0.000208 | 0.000222 | 0.000231 | –
in ethyl acetate | 1.33e-05 | 1.49e-05 | 1.95e-05 | 2.06e-05 | 2.37e-05 | 3.38e-05 | 5.38e-05 | 9.29e-05 | 0.000194 | –
in isobutanol | 7.49e-05 | 7.77e-05 | 9.15e-05 | 0.000124 | 0.000158 | 0.000187 | 0.000224 | 0.000278 | 0.000323 | –
in isopropanol | 4.14e-05 | 5.16e-05 | 6.41e-05 | 7.29e-05 | 9.54e-05 | 0.00011 | 0.000122 | 0.00015 | 0.000178 | –
in methanol | 0.000742 | 0.000807 | 0.000866 | 0.000937 | 0.000996 | 0.00105 | 0.00112 | 0.00119 | 0.00126 | –
in methyl acetate | 4.3e-06 | 8.5e-06 | 1e-05 | 1.49e-05 | 1.93e-05 | 3.27e-05 | 4.41e-05 | 5.46e-05 | 6.4e-05 | –
in n-butanol | 5.9e-06 | 8.4e-06 | 9.8e-06 | 2.2e-05 | 3.48e-05 | 4.72e-05 | 5.85e-05 | 8.5e-05 | 0.000104 | –
in n-propanol | 2.83e-05 | 2.99e-05 | 3.34e-05 | 4.63e-05 | 5.58e-05 | 6.44e-05 | 8.96e-05 | 0.000141 | 0.000187 | –
in water | 0.00274 | 0.00289 | 0.00307 | 0.00321 | 0.00342 | 0.0036 | 0.00379 | 0.00404 | 0.00433 | –
